Assay results published in ChEMBL document CHEMBL1201862, “PubChem BioAssay data set” (2004).
Active and inactive are the calls of the source.

Assays:
BJ [1] = test: growth inhibition of engineered Ras-driven BJ cells – cell-based, alamar blue fluorescence, cherrypicked samples, dose response (AID 2631); type: functional; conditions: Homo sapiens;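 note: confirmatory dose-response assay in RAS-dependent BJ fibroblasts engineered with TERT, LT and ST, with cytotoxicity read by fluorescence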
[2] = DRD fibroblast viability loss – cell-based, non-viral oncogenic, luminescence, dose response (AID 1934); type: functional; conditions: Homo sapiens
BJ [3] = test: BJ-TERT fibroblast viability loss – cell-based, RAS-independent, luminescence, dose response (AID 1933); type: functional; conditions: Homo sapiens
BJ [4] = test: cells; type: functional, cell-based; conditions: Homo sapiens
[5] = biological target: T1, Microphthalmia-associated transcription factor (Homo sapiens, UniProt O75030); test: reducers of TRPM1 reporter luminescence, concentration series – cell-based, SK-MEL-5, cherry-picked, set 3, MITF inhibitor project, dose response (AID 493073); type: functional;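 note: SK-MEL-5 melanoma cells with luciferase driven by the MITF target TRPM1 promoter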
T1 sequence (O75030 whole entry): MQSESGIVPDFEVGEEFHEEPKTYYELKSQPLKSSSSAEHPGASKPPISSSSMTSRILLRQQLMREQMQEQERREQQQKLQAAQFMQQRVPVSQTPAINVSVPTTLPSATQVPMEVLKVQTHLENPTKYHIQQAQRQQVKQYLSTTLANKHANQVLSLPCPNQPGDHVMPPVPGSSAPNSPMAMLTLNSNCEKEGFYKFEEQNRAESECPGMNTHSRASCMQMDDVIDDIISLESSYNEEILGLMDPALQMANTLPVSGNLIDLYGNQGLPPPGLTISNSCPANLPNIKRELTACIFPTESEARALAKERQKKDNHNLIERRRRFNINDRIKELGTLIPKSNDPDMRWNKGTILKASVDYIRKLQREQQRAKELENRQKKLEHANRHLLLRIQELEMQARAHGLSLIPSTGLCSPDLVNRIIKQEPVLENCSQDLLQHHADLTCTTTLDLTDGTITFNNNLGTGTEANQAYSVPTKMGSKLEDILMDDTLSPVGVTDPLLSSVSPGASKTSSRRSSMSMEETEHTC

BJ [6] = test: BJ-TERT-LT-ST fibroblast viability loss – cell-based, RAS-independent, luminescence, dose response (AID 1935); type: functional; conditions: Homo sapiens;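 note: BJ fibroblasts immortalized with TERT plus LT and ST oncogenes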
[7] = biological target: G-protein coupled receptor 55 (Homo sapiens, UniProt Q9Y2T6); test: selective activators of receptor GPR55 – imaging, U2OS cells, beta-arrestin-GFP redistribution, primary screen (AID 1961); type: functional
Sequence of G-protein coupled receptor 55 (Q9Y2T6 whole entry): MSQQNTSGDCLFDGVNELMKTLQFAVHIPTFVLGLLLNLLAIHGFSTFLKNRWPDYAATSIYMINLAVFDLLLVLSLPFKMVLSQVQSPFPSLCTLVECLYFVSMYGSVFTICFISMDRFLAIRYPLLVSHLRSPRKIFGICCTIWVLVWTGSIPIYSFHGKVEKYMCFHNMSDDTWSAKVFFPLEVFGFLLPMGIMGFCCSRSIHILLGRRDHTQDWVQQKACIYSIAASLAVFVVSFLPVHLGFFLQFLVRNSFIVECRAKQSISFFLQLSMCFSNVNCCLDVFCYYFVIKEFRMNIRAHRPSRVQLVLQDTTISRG

Prothrombin = Prothrombin (Homo sapiens, UniProt P00734); test: Thrombin 1536 HTS Dose Response Confirmation. [Related pubchem assays: 1046 (Thrombin 1536 HTS; hits were confirmed in this assay)]; type: functional
Saccharomyces cerevisiae = test: S. cerevisiae Caspase-1/ASC signal blockers IC50, NALP1 inhibitor project selectivity test (AID 488863); type: functional, organism-based
[8] = biological target: NACHT, LRR and PYD domains-containing protein 1 (Homo sapiens, UniProt Q9C000); test: NALP1 inhibitors in yeast, dose response, luminescent (AID 488860); type: functional
Sequence of NACHT, LRR and PYD domains-containing protein 1 (Q9C000 1-1212 limits assumed): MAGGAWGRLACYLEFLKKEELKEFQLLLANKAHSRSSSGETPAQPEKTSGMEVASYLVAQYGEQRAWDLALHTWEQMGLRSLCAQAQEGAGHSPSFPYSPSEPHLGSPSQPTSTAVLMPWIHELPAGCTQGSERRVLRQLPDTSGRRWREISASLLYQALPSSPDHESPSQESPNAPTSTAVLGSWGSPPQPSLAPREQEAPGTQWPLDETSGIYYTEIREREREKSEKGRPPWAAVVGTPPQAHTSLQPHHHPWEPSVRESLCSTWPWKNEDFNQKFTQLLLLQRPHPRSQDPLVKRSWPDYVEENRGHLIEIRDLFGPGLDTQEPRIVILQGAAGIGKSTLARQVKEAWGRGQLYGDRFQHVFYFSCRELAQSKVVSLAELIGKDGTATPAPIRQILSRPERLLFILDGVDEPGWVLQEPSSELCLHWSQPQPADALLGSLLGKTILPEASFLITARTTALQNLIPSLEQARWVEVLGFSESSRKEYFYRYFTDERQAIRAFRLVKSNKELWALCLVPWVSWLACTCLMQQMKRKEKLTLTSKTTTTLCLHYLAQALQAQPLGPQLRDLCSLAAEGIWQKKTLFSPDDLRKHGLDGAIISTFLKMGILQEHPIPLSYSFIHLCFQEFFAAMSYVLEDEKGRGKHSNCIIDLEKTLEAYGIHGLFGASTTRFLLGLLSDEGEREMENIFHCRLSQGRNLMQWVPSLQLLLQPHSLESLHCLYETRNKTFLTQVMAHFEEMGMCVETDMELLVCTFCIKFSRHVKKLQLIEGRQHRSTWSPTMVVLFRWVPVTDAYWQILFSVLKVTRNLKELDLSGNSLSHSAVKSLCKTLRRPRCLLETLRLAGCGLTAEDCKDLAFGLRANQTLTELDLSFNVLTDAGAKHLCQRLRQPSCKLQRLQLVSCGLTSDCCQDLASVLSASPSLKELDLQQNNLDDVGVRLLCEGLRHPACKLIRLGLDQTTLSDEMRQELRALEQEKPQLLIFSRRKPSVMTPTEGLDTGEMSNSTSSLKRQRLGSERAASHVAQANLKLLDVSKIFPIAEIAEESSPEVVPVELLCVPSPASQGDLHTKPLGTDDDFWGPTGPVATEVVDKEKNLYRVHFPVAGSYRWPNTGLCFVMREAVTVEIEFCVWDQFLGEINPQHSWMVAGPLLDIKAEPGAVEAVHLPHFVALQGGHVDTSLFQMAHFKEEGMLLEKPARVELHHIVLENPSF
Sequence of NACHT, LRR and PYD domains-containing protein 1 (Q9C000 1213-1473 limits assumed): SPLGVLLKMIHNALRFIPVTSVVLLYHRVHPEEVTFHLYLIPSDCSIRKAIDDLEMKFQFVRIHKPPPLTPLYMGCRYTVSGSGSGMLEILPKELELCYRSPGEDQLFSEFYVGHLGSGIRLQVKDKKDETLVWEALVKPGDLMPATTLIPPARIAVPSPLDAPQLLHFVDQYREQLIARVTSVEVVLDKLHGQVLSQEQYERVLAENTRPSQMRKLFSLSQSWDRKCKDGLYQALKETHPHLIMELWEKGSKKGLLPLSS

[9] = biological target: DNA dC->dU-editing enzyme APOBEC-3A (Homo sapiens, UniProt P31941); test: A3A deaminase inhibition for selectivity – biochemical, dose response (AID 504722); type: functional
Sequence of DNA dC->dU-editing enzyme APOBEC-3A (P31941 whole entry): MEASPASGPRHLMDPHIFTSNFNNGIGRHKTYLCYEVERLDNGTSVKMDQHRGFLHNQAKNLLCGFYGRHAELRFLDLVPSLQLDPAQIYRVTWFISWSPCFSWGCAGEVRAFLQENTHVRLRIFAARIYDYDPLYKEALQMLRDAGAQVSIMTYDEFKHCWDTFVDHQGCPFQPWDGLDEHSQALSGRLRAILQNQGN

[10] = biological target: DNA dC->dU-editing enzyme APOBEC-3G (Homo sapiens, UniProt Q9HC16); test: Dose Response confirmation of small molecule APOBEC3G DNA Deaminase Inhibitors via a fluorescence-based single-stranded DNA deaminase assay. [Related pubchem assays (depositor defined):AID493012, AID493028]; type: functional
Sequence of DNA dC->dU-editing enzyme APOBEC-3G (Q9HC16 whole entry): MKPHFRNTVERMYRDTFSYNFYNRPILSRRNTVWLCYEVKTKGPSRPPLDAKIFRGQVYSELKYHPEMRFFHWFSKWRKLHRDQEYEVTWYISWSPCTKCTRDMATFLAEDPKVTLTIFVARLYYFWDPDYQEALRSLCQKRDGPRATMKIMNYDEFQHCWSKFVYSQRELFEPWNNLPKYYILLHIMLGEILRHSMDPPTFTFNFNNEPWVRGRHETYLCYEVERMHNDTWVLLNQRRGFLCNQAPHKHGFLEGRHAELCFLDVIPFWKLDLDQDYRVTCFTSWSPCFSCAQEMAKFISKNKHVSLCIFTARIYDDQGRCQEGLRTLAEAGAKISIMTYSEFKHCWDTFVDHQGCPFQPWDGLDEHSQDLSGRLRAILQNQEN

[11] = biological target: FAD-linked sulfhydryl oxidase ALR (Homo sapiens, UniProt P55789); test: ALR-catalysed DTT oxidation blockers – biochemical, H2O2 detection, luminescence, cherry-pick, dose response (AID 493248)
Sequence of FAD-linked sulfhydryl oxidase ALR (P55789 whole entry): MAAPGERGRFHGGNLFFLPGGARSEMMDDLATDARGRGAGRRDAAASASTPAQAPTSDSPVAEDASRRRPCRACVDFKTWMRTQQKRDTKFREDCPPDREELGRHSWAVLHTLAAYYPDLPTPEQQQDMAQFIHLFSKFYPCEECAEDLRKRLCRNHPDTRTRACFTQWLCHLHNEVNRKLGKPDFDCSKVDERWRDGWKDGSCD

[12] = biological target: Phosphoethanolamine/phosphocholine phosphatase (Homo sapiens, UniProt Q8TCT1); test: SAR assay for compounds that inhibit PHOSPHO1. [Related pubchem assays (depositor defined):AID1545, AID1565, AID1574]
Sequence of Phosphoethanolamine/phosphocholine phosphatase (Q8TCT1 whole entry): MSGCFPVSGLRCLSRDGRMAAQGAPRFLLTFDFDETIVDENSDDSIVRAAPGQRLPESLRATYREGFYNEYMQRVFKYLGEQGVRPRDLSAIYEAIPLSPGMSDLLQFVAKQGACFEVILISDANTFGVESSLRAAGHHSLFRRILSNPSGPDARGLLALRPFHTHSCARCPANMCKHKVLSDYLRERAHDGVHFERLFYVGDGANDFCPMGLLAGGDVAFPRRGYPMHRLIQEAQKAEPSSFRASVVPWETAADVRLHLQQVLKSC

[13] = biological target: Diphosphomevalonate decarboxylase (Streptococcus pneumoniae serotype 2 (strain D39 / NCTC 7466), UniProt Q9FD53); test: diphosphomevalonate decarboxylase inhibitor confirmation – biochemical, cuvette format, coupled NADH fluorescence (AID 1028); type: functional
Sequence of Diphosphomevalonate decarboxylase (Q9FD53 whole entry): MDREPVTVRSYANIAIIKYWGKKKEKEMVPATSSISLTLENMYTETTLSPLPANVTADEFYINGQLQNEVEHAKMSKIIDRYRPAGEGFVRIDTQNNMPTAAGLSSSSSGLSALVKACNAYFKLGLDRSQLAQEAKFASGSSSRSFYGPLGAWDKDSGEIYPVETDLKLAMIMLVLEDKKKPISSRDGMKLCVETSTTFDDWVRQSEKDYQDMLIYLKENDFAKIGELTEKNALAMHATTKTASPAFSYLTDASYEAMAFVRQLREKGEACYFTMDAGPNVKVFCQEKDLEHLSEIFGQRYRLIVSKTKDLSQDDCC

[14] = biological target: T2, Alkaline phosphatase, tissue-nonspecific isozyme (Homo sapiens, UniProt P05186); test: potency against alkaline phosphatase TNAP – biochemical, luminescent, dose response, SAR follow-up (AID 1056)
T2 sequence (P05186 whole entry): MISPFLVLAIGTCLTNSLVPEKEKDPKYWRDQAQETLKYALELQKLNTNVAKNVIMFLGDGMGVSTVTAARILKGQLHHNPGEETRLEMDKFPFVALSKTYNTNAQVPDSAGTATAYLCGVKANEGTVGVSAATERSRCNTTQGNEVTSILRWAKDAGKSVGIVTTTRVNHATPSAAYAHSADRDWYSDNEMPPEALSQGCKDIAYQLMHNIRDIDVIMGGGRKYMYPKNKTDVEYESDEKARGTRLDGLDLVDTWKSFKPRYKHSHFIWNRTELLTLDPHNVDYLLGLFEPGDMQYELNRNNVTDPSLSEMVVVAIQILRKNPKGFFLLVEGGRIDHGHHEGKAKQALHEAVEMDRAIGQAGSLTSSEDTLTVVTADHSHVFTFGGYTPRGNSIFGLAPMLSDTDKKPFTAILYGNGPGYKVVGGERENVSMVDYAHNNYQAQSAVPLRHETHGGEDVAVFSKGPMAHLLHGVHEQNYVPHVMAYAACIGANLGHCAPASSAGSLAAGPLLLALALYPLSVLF

[15] = biological target: T3, Mannose-6-phosphate isomerase (Homo sapiens, UniProt P34949); test: phosphomannose isomerase inhibition – biochemical, fluorescence intensity, confirmation (AID 1535)
T3 sequence (P34949 whole entry): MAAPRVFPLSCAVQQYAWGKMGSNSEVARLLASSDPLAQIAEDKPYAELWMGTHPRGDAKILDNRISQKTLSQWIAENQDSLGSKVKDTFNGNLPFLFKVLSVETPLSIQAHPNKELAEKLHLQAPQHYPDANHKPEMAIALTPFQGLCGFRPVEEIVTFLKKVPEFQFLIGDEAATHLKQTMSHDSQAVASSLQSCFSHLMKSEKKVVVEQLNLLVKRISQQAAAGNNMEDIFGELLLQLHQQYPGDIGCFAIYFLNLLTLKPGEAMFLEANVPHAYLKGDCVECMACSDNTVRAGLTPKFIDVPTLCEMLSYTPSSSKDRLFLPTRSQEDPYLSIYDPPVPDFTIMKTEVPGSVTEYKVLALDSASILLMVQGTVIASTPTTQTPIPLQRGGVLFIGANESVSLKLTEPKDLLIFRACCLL

Phosphomannomutase 2 = Phosphomannomutase 2 (Homo sapiens, UniProt O15305); test: Counter screen SAR assay for PMM2 inhibitors via a fluorescence intensity assay. [Related pubchem assays (depositor defined):AID1545, AID1574]
Sequence of Phosphomannomutase 2 (O15305 whole entry): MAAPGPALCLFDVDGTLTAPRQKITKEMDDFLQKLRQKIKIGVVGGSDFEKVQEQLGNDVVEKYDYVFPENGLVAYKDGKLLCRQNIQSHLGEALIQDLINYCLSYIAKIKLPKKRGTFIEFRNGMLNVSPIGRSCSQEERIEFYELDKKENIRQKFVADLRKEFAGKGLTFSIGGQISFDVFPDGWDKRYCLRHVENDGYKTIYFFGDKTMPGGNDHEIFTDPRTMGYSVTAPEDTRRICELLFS

COc1ccc(C(=O)/C=C/C(=O)N(CC(=O)NC2CCCCC2)Cc2ccccc2OC)c(O)c1
EC50 (BJ [1]): 5.02 µM (inconclusive)
EC50 [2]: 3.39 µM (active)
EC50 (BJ [3]): 2.2 µM (active)
EC50 (BJ [4]): 3.7 µM (active)
AC50 [5]: 4.04 µM (active)
EC50 (BJ [6]): 2.57 µM (inconclusive)
EC50 [7]: > 32 µM (inactive)

COCC(=O)n1nc(-c2ccc(Cl)cc2)nc1NCc1ccc(F)cc1
IC50 (Prothrombin): 1.8 µM (active)
IC50 (Saccharomyces cerevisiae): > 100 µM (inactive)
IC50 [8]: > 100 µM (inactive)

CCn1c(-c2ccc(Cl)cc2)n[nH]c1=S
IC50 [9]: > 100 µM (inactive)
IC50 [10]: 5.43 µM (active)
AC50 [11]: 6.5 µM (active)

O=C(NCc1ccccc1)c1cccc(-n2sc3ccccc3c2=O)c1
IC50 [12]: 2.33 µM (inactive)
IC50 [13]: 4.74 µM (active)
IC50 [14]: > 100 µM (inactive)
IC50 [15]: 2.25 µM (active)
IC50 (Phosphomannomutase 2): 17.8 µM (active)
